# Assay results as given in paper PMC2776710 (Basic research in cardiology, 2009).
# Molecular target: mitochondrial respiratory complex II (succinate-ubiquinone oxidoreductase) (Rattus norvegicus, UniProt P21913+Q641Z9+Q6PCT8)
# Sequence (P21913 31-282): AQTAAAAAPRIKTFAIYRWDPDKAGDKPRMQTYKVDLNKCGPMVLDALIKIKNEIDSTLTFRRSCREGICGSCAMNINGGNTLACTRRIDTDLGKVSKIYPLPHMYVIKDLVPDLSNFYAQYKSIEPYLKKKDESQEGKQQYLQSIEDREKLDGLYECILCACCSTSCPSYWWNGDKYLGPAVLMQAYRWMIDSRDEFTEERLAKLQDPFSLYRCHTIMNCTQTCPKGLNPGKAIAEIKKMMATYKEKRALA
# Sequence (Q641Z9 30-169): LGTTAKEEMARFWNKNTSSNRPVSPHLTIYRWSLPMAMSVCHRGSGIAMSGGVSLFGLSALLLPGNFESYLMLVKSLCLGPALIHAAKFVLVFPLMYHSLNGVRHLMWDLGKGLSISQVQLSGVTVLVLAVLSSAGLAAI
# Sequence (Q6PCT8 57-159): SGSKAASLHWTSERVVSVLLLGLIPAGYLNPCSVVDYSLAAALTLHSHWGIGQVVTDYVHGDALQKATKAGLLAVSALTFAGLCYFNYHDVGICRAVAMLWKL
# Sequence (Q920L2 35-656 partner): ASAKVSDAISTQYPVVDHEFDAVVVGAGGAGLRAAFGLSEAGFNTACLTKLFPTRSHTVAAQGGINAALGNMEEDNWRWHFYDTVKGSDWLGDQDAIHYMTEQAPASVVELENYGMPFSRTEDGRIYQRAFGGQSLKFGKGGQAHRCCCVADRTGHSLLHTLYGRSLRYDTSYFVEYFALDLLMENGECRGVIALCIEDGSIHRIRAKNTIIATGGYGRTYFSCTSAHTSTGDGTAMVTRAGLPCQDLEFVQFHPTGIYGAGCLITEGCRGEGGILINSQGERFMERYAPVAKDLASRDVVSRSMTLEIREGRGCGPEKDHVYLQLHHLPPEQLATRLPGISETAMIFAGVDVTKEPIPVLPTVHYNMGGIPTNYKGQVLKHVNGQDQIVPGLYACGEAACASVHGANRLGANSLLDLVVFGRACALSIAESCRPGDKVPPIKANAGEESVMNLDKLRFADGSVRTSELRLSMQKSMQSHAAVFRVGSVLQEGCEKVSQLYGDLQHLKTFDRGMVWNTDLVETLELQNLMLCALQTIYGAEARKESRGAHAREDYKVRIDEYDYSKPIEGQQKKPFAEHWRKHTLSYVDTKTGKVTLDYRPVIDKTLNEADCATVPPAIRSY
structure (smiles),measurement,value
"COc1[nH]c(=O)c(C(=O)[C@@H](C)C[C@H](C)[C@@H](Cl)CCl)c(O)c1OC [AA5, atpenin A5]",IC50,8.3 nM
